Reference: publication PMC7138307 (PLoS ONE, 2020)
Where two headings read alike, the source gives them in different places.

How the values were obtained:
[1] = Pharmacokinetic experiment, free drug levels in mouse; type: in vivo
Procedure: In vitro plasma and brain protein binding values were generated via the Rapid Equilibrium Dialysis method. The compound of interest was incubated in K2EDTA mouse plasma and rat brain homogenate (homogenized 1:7 (w:v) in 1xPBS) purchased from BioIVT, opposite a buffered compartment of 100mM Potassium phosphate/150mM Sodium chloride, pH 7.4, at 1uM for 4hr and 6hr respectively. […] Free fractions (fu) were then calculated by comparing peak-area ratios of matrix and buffered compartments.
In vivo pharmacokinetic studies were conducted in accordance with Biogen IACUC guidelines in 20-25g C57BL/6 mice purchased from Charles River Labs. A total of 9 mice, split into 3 groups (A,B,C), were dosed subcutaneously at 30mg/kg (3mg/mL; 10mL/kg) in a vehicle of 20% Captisol. […] Mouse brains were harvested for total drug concentration measurement, placed into MP Biomedicals Lysing Matrix D tubes, and stored at -80°C, along with plasma samples to await quantitative analysis.
Total drug concentration in plasma and brain tissue was measured via well-established bioanalytical extraction (protein precipitation) and detection methods (LC-MS/MS). […] Reconstituted extracts were then analyzed via LC-MS/MS (AB Sciex 5500) utilizing a binary HPLC setup (Shimadzu LC-20ADvp) and reverse-phase chromatography gradient (ACE 3 C18-AR). […]

FES = target: T1, FES (Mus musculus, UniProt P16879); experiment: In vivo target engagement, KiNativ ADP probe, mouse brain lysates; settings: 75 mg/kg I.P., one hour, peptide LRADNTPVAVKSCR, Lys1
T1 construct: homogenized brain lysates were labeled with Desthiobiotin-ADP-acyl phosphate probe; from tissue; host or cells: mouse cortical brain lysate
T1 sequence (P16879 whole entry): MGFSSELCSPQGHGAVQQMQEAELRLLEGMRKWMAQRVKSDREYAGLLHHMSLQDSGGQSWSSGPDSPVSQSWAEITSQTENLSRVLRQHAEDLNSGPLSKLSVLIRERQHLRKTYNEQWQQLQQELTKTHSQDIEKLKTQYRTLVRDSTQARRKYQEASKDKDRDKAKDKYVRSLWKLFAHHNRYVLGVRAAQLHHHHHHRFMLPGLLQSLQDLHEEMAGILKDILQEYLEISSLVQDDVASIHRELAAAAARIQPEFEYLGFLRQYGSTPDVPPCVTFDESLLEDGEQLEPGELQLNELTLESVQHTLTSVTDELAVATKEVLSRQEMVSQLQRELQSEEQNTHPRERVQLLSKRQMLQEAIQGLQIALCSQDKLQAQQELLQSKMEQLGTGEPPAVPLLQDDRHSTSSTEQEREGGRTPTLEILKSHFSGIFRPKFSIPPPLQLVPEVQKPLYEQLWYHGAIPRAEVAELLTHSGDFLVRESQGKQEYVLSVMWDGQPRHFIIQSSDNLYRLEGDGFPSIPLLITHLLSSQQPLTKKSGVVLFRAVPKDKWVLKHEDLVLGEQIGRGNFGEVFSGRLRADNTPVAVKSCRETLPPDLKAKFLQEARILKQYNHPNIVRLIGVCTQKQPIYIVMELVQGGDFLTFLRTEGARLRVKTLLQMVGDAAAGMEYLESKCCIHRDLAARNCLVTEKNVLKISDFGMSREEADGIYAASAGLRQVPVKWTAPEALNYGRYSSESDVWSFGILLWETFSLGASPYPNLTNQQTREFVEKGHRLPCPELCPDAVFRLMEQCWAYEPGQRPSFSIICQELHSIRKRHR
Excerpt: (§1) To determine both in vivo target engagement and identify any potential off-target kinases inhibited by BIIB-TTBKi, we used a combination of desthiobiotin-ATP/ADP probes to covalently bind and biotinylate the conserved lysine residues at the active site of protein kinases (ActivX-KiNativ; Kyorin Pharmaceuticals, Ltd, Tokyo Japan). […] Lysates were trypsin digested and desthiobiotinylated peptides were captured on streptavidin beads. A list of 269 unique peptides were quantified through LC-MS/MS parallel reaction monitoring method. Target engagement was calculated as the percentage of peptide signal lost after addition of BIIB-TTBKi when compared to the vehicle treated lysate. Using the ADP probe, we were able to detect a total of 150 kinases in the mouse cortical brain lysates (Fig 5A).
(§2) Mice were euthanized one hour following injection and homogenized brain lysates were labeled with Desthiobiotin-ADP-acyl phosphate probe (ADP probe). Desthiobiotinylated peptides were captured on streptavidin beads and peptides were quantified through LC-MS/MS parallel reaction monitoring method. Target engagement was calculated as the percentage of peptide signal lost when compared to the vehicle treated lysate. (A) Visualization of the off-target effects of BIIB-TTBKi at 75mg/kg. The ADP probe labelled around 150 unique kinases in mouse cortical brain lysates.

TTBK1, TTBK2 = experiment: as above; settings: 75 mg/kg I.P., one hour, peptide DIKPSNFAMGR, Lys2
Excerpt: as §1, §2

FER = target: T2, FER (Mus musculus, UniProt P70451); experiment: Ex vivo KiNativ ATP/ADP probe competition in mouse cortical brain lysates; type: binding
T2 construct: from tissue; host or cells: mouse cortical brain lysate
T2 sequence (P70451 whole entry): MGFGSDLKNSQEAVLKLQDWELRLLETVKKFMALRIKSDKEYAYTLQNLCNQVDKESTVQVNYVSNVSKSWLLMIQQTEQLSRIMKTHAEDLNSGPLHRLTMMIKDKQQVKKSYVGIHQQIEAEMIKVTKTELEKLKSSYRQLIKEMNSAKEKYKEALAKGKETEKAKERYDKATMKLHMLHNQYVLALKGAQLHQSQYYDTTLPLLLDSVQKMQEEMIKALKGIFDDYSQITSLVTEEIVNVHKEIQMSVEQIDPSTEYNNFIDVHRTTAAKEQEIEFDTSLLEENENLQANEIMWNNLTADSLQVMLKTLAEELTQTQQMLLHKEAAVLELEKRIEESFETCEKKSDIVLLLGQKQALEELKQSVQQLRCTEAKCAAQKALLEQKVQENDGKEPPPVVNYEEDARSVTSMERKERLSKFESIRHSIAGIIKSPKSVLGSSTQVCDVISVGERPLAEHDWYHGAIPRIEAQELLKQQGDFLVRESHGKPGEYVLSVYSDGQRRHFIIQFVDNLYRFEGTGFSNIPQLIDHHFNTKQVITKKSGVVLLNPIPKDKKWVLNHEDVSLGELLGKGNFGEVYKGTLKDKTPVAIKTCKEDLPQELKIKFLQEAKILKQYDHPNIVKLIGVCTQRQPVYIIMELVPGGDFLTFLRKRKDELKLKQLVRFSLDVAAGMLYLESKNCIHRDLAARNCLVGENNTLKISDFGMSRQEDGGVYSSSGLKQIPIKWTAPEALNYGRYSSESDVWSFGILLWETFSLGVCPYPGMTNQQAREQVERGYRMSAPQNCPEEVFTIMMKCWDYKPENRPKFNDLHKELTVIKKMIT

TAO1, TAO3 = experiment: as above; type: binding; settings: DIKAGNILLTEPGQVK, Lys2
[2] = Free drug in the brain after hypothermia experiment; type: in vivo; settings: C57Bl/6, mouse, intraperitoneal, one hour after dosing
Procedure: Following hypothermia induction, 200–300 μL of blood was collected via cardiac punch and transferred to K2EDTA-treated BD Microtainers (Becton Dickinson and Co., Franklin Lakes, NJ). Mice were sacrificed via decapitation and brains were quickly removed and bisected sagitally. The right cortices, were isolated, placed into 2 mL microtubes along with a single 5 mm stainless steel bead and the left cortices were placed into 2 mL Lysing Matrix A tubes (MP Biomedicals, Santa Ana, CA). Both tubes were immediately snap frozen in liquid nitrogen. The whole blood-containing microtainers were centrifuged (2000 x g, 5 minutes) and plasma was transferred to 96-well plates for pharmacokinetic determination. […] The protein content of each sample was quantified using a Direct Detect Infrared Spectrometer (EMD Millipore Corp., Burlington, MA).
In vitro plasma and brain protein binding values were generated via the Rapid Equilibrium Dialysis method. […] At the conclusion of incubation, samples were taken from both matrix and buffered compartments, matrix-matched using blank buffer and matrix, extracted with acetonitrile, diluted with water, and analyzed utilizing an Agilent RapidFire 365 high-throughput LC coupled with MS/MS detection via an AB Sciex 5500. Free fractions (fu) were then calculated by comparing peak-area ratios of matrix and buffered compartments. […]

In the case of `CCC(C)(O)C#Cc1cc2c(ccn2-c2ccnc(N)n2)cn1` (centres unmarked) [BIIB-TTBK1i], the clearance rate [1] is reported as “rapid”, the “Percent Inhibition with BIIB-TTBKi at 75mpk” value (FES) is reported as 50.6% and the “Percent Inhibition with BIIB-TTBKi at 75mpk” value (TTBK1, TTBK2) is reported as 82%. For the same molecule, the “Percent Inhibition at 1μM” value (FER; QEDGGVYSSSGLKQIPIK, Activation Loop, ADP probe) was 66.7%, the “Percent Inhibition at 1μM” value (FER; QEDGGVYSSSGLKQIPIK, Protein Kinase Domain, ATP probe) was 69.4% and the “Percent Inhibition at 1μM” value (FER; TPVAIKTCKEDLPQELK, Lys1, ADP probe) was 79.1%. The “Percent Inhibition at 1μM” value (FER; TPVAIKTCKEDLPQELK, Lys1, ATP probe) was 74.9%, the “Percent Inhibition at 1μM” value (TAO1, TAO3; ADP probe) was 66.8% and the “Percent Inhibition at 1μM” value (TAO1, TAO3; ATP probe) was 69.5%. The concentration at 1 h ([2]; 25mg/kg I.P., read-out: concentration of free drug in the brain) was 207 nM and the concentration at 1 h ([2]; 50mg/kg I.P., read-out: average free drug in the brain) was 602 nM.
